Experimental data taken from BindingDB's records for doi:10.1021/jm980294n (University of Utah, 1998).

Key:
[1] = Inhibition of insulin receptor mediated mitogenesis of NIH3T3 cells
[2] = Inhibition of Epidermal growth factor receptor mediated mitogenesis of NIH3T3 cells

| SMILES | IC50 [1] [µM] | IC50 [2] [µM] |
| --- | --- | --- |
| COc1ccc(Cc2nc(NC3=NC(=O)N(C)C3=O)n(C)c2Cc2ccc(O)cc2)cc1 [4-(5-(4-hydroxybenzyl)-4-(4-methoxybenzyl)-1-methyl-1H-imidazol-2-ylamino)-1-methyl-1H-imidazole-2,5-dione] | 242 | 11.3 |
| COc1ccc(Cc2cn(Cc3ccc(OC)cc3)c(NC3=NC(=O)N(C)C3=O)n2)cc1 [5-[1,4-Bis-(4-methoxy-benzyl)-1H-imidazol-2-ylamino]-3-methyl-imidazole-2,4-dione] | 6.7 | 36.9 |
| COc1ccc(Cc2cn(Cc3ccc(O)cc3)c(NC3=NC(=O)N(C)C3=O)n2)cc1 [5-[1-(4-Hydroxy-benzyl)-4-(4-methoxy-benzyl)-1H-imidazol-2-ylamino]-3-methyl-imidazole-2,4-dione] | 9.8 | 22.7 |
